In experiment [1] the target is T1, Nav1.1 channels (Homo sapiens, UniProt P35498).
T1 construct: expressed in transfected cells
The experiment can be described thus: Patch clamp of Na+ currents in Nav1.1 channels. Format: cell-based. As to the method: (§1) The role of ZL0181 in regulating Nav1.1 and Nav1.2 channels was also investigated.
(§2) HEK-Nav1.1, […] HEK-Nav1.6 were maintained in medium composed of equal volumes of DMEM and F-12 (Invitrogen) supplemented with 0.05% glucose, 0.5 mm pyruvate, 10% fetal bovine serum, 100 units/ml penicillin, 100 μg/ml streptomycin incubated at 37° C. with 5% CO2. For selection of Nav1.1 and Nav1.2, 500 μg/ml G418 (Invitrogen) was used, and for selection of Nav1.6, 80 μg/ml G418 (Invitrogen) was used. Cells were transfected according to manufacturer's instructions at 90-100% confluency using Lipofectamine 2000 (Invitrogen). See e.g., Shavkunov, A., et al. Assay and drug development technologies 10(2):148-160 (2012).
(§3) Detailed methods for path-clamp experiments is known in the art. See e.g., Ali, S. R., et al., Journal of Biological Chemistry 291:11268 (2016).

Experiment [2] concerns the target T2, Nav1.2 channels (Homo sapiens, UniProt Q99250).
T2 construct: expressed in transfected cells
The experiment can be described thus: Patch clamp of Na+ currents in Nav1.2 channels. Format: cell-based. The protocol:
as §1, §2, §3

Experiment [3] addresses T3, FGF14:Nav1.6 complex (Homo sapiens, UniProt Q92915).
T3 construct: FGF14 and the C-tail of Nav1.6 channels are fused to vectors expressing CLuc and NLuc luciferase reporter; expressed in transfected cells; host or cells: HEK293, transient transfection
T3 sequence (Q92915 1-252 isoform Q92915-2): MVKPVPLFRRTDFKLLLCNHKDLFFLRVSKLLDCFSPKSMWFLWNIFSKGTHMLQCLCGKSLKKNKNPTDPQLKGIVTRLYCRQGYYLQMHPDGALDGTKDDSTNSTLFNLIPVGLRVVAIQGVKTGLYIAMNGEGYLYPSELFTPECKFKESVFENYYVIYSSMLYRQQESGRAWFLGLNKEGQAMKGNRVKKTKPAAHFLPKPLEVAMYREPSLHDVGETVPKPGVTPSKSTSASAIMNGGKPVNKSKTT
The experiment can be described thus: Split-luciferase complementation assay (LCA) in HEK293 cells expressing CLuc-FGF14 and CD4-Nav1.6-NLuc. Format: cell-based. The settings on record: 50 μM, normalized to DMSO control. The protocol: Detailed methods for LCA can be found is known in the art. See e.g., Shavkunov A. S., et al., Methods in Molecular Biology 1278:497-514 (2015). Statistical values were calculated as mean and standard error of the mean (mean±SEM), unless otherwise specified. The statistical significance (*p<0.05) of different groups was determined by Student's t-test, one-way ANOVA with post-hoc Bonferroni's method or Kruskal-Wallis one-way ANOVA on ranks with post-hoc Dunn's method using Sigma Stat (San Jose, Calif.) and Graph PrismR (La Jolla, Calif.) software. Dose-response modulation was determined by: y=START+(END−START)*x^n/(k^n+x^n) where k, Michaelis constant; n, cooperative sites; x, independent variable; y, dependable variable.
To monitor the role of compounds of the invention in the FGF14:Nav1.6 complex, certain embodiments of the invention were screened by split-luciferase complementation assay (LCA) where FGF14 and the C-tail of Nav1.6 channels are fused to vectors expressing CLuc and NLuc luciferase reporter. Compounds of the invention, as exemplified by, compounds ZL0141, ZL0148, ZL0181, and ZL0182 (see FIG. 1) were tested at 50 μM in HEK293 cells expressing CLuc-FGF14 and CD4:Nav1.6-NLuc. […] None of the tested compounds interfered with the full-length luciferase enzyme (FIG. 2B, Chart C). Dose-response studies were then performed with compounds ZL0148, ZL0181, and ZL0182 against the FGF14:Nav1.6 complex.

For experiment [4], the target named is T4, FGF14 (Homo sapiens, UniProt Q92915).
T4 construct: made in house
T4 sequence (Q92915 64-252 isoform Q92915-2 limits assumed): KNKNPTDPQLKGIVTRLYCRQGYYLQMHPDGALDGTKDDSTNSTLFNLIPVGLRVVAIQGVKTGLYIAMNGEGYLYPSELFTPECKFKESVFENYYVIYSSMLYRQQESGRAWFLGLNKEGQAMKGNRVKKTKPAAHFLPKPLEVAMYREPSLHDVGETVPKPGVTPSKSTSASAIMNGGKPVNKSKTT
Kind of experiment: Surface plasmon resonance spectroscopy, immobilized FGF14. Format: binding. The settings on record: SPR, 25° C., 10-200 μM. As to the method: (§4) Surface Plasmon Resonance Spectroscopy. SPR experiments were performed on a Biacore T100 instrument (Biacore GE), and the interaction between FGF14 to Nav1.6 channel was studied at 25° C. To analyze the effects of ZL0181 on channel binding, FGF14WT and Nav1.6 C-tail were immobilized using acetate 5.5 with amine coupling kit on CM5 sensor chip, and obtaining RU 3000 and 4500 respectively. No protein was coupled to the control flow channel of the chip. ZL0181 (5-200 μM) in HBS-P+(50 μl/min) buffer ([…], 150 mM NaCl, 0.005% (v/v) P20), pH 7.4 were injected over the chip for 180 s. Next, HB S-P+ buffer without protein were passed over the chip for 180 s to monitor dissociation, and the chip surface was then regenerated with NaCl (200 mM). For each injection of ZL0181 binding to the FGF14WT or the Nav1.6, the nonspecific responses were subtracted from the responses obtained for control prior to data analysis. Maximal equilibrium responses were plotted against the concentrations of ZL0181, and the equilibrium dissociation constant (KD) was calculated from the fitted saturation binding curve. Fitted binding curves were judged to be accurate based on the distribution of the residuals (even and near zero). Graphs were plotted in GraphPad Prism 6 Software (La Jolla, Calif.).
(§5) The role of ZL0181 was further determined by surface plasmon resonance spectroscopy. […]

The target in experiment [5] is T5, Nav1.6 C-tail (Homo sapiens, UniProt Q9UQD0).
T5 construct: FGF14WT and Nav1.6 C-tail were immobilized; made in house
T5 sequence (Q9UQD0 1797-1980 limits assumed): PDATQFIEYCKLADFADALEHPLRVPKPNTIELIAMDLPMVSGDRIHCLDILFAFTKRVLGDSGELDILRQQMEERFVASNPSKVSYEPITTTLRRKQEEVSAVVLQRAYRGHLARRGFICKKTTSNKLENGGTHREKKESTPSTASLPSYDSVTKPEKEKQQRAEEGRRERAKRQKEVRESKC
The experiment can be described thus: Surface plasmon resonance spectroscopy, immobilized Nav1.6 C-tail. The settings on record: SPR, 25° C., 10-200 μM. Format: binding. The protocol:
as §4, §5

Residues, ends and D or L forms follow the SMILES beside them. *: point of attachment. Cbz = O=C(OCc1ccccc1)*; Boc = CC(C)(C)OC(=O)*

The source of these data is patent US10889543B2, “Fine-tune modulators of neuronal excitability for neuropsychiatric disorders” (THE BOARD OF REGENTS OF THE UNIVERSITY OF TEXAS SYSTEM, priority 2016, dated 2021).

T2 sequence (Q99250 whole entry): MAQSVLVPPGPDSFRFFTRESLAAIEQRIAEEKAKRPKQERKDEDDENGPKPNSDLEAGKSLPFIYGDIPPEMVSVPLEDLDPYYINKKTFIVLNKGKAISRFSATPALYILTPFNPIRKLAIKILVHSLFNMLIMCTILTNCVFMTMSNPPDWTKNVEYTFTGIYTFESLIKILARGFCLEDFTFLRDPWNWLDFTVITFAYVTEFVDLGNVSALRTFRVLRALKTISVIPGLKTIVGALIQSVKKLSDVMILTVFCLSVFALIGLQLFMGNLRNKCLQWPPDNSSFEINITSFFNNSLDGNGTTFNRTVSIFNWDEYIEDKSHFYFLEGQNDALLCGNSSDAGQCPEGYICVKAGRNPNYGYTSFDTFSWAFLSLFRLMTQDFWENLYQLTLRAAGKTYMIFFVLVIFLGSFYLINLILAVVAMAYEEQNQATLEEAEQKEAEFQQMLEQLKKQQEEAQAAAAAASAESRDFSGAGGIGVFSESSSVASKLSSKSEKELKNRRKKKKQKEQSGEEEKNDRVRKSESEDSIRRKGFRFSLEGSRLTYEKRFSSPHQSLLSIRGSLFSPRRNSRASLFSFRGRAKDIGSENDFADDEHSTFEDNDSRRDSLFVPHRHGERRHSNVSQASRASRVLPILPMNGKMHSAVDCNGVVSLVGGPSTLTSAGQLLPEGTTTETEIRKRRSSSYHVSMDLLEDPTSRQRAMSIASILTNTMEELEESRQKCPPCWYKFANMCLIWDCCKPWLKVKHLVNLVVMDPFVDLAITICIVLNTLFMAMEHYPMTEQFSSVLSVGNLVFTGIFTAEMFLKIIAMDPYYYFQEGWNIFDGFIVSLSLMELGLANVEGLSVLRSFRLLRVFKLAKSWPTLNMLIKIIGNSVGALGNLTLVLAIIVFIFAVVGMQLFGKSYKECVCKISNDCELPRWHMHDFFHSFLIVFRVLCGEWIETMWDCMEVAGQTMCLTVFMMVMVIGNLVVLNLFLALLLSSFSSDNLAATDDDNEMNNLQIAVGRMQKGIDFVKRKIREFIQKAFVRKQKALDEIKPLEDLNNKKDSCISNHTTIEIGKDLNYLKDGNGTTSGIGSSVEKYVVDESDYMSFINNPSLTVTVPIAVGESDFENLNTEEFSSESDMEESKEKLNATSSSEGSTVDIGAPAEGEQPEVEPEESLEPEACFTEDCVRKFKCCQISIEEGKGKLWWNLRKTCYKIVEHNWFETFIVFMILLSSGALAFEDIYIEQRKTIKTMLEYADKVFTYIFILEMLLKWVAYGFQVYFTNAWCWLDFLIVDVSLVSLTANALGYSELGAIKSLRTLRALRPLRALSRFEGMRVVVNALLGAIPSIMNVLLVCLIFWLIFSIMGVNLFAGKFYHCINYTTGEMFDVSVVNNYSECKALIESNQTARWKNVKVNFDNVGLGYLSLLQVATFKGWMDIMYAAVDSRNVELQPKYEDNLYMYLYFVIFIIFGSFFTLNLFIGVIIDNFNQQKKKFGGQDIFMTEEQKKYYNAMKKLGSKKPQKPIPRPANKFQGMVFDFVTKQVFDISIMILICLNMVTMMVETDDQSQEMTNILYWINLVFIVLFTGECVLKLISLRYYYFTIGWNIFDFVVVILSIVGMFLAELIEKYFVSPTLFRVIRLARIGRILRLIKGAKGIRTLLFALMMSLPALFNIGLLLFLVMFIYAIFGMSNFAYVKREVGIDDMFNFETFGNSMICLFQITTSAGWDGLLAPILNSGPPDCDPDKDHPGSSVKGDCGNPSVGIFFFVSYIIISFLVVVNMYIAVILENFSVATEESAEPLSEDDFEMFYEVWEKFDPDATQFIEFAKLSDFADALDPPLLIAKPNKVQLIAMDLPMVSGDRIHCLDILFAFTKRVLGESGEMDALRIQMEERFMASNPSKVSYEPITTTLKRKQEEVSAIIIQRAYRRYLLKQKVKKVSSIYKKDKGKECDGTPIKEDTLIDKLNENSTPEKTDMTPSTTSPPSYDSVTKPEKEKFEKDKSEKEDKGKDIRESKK

For `CC(C)C[C@H](NC(=O)[C@H](Cc1ccccc1)NC(=O)OCc1ccccc1)C(=O)N1CCC[C@H]1C(=O)N[C@@H](CCCCNC(=O)OC(C)(C)C)C(N)=O` [ZL0181, Z-Phe-Leu-Pro-Lys(Boc)-NH2] (Cbz-FLPK(Boc)-NH2), in experiment [1], the “peak current amplitude in Nav1.1 channels” value is listed as “suppresses peak current amplitude”. Further, the “synergy with FGF14 on Na+ current and rescue of V1/2 of inactivation, Nav1.1” value in experiment [1] (in presence of FGF14) was “does neither act synergistically to further suppress Na+ current in presence of FGF14 or rescue the voltage-dependence inactivation property”. Moreover, the “peak current amplitude in Nav1.2 channels” value in experiment [2] was “suppresses peak current amplitude”. Besides, the “synergy with FGF14 on Na+ current and rescue of V1/2 of inactivation, Nav1.2” value in experiment [2] (in presence of FGF14) was “does neither act synergistically to further suppress Na+ current in presence of FGF14 or rescue the voltage-dependence inactivation property”. Also, the “luminescence response compared to control (DMSO)” value in experiment [3] is 75±6%. Besides, the Kd was found to be 13 µM in experiment [4] and 212 µM in experiment [5].
